The source of these data is patent US7662826B2, “Pyrazolo [1,5-a] pyrimidine derivative and nad (p) h oxidase inhibitor containing the same” (Shionogi & Co., Ltd., priority 2002, dated 2010).

Molecules are shown by their SMILES. Bounds are passed on as bounds.

Regarding `O=C1CCN(c2ccccc2NC(=O)c2cnc3c(-c4cccc(Cl)c4)cnn3c2)CC1` [Compound B1], the melting point was 212 °C. Take `CNC1CCN(c2ccccc2NC(=O)c2cnc3c(-c4cccc(Cl)c4)cnn3c2)CC1` [Compound B3]: the melting point was 215 to 217 °C.

On to `CCNC1CCN(c2ccccc2NC(=O)c2cnc3c(-c4cccc(Cl)c4)cnn3c2)CC1` [Compound B5], for which the melting point was in the range of 193 to 195 °C.

Regarding `CCCNC1CCN(c2ccccc2NC(=O)c2cnc3c(-c4cccc(Cl)c4)cnn3c2)CC1` [Compound B6], the melting point lay within 187 to 189 °C. The same measure for `CCCCNC1CCN(c2ccccc2NC(=O)c2cnc3c(-c4cccc(Cl)c4)cnn3c2)CC1` [Compound B8]: 191 to 192 °C; for `CC(C)NC1CCN(c2ccccc2NC(=O)c2cnc3c(-c4cccc(Cl)c4)cnn3c2)CC1` [Compound B9]: 206 to 208 °C; for `CCC(C)NC1CCN(c2ccccc2NC(=O)c2cnc3c(-c4cccc(Cl)c4)cnn3c2)CC1` (stereo not shown) [Compound B11]: 202 to 204 °C. `CNC1CCN(c2ccccc2NC(=O)c2cnc3c(-c4ccc(Cl)cc4)cnn3c2)CC1` [Compound B16] showed a melting point of 226 to 228 °C. Regarding `CCNC1CCN(c2ccccc2NC(=O)c2cnc3c(-c4ccc(Cl)cc4)cnn3c2)CC1` [Compound B17], the melting point lay within 234 to 236 °C. Consider `CC(C)NC1CCN(c2ccccc2NC(=O)c2cnc3c(-c4ccc(Cl)cc4)cnn3c2)CC1` [Compound B18], for which the melting point lay in the range of 246 to 247 °C. `CCCNC1CCN(c2ccccc2NC(=O)c2cnc3c(-c4ccc(Cl)cc4)cnn3c2)CC1` [Compound B19] returned a melting point of 235 to 237 °C. The same measure for `C=CCNC1CCN(c2ccccc2NC(=O)c2cnc3c(-c4ccc(Cl)cc4)cnn3c2)CC1` [Compound B20]: 229 to 230 °C. `CCCCNC1CCN(c2ccccc2NC(=O)c2cnc3c(-c4ccc(Cl)cc4)cnn3c2)CC1` [Compound B23]: the melting point lay in the range of 222 to 224 °C.

In turn, `O=C(Nc1ccccc1N1CCC(O)CC1)c1cnc2c(-c3ccc(Cl)cc3)cnn2c1` [Compound B24] showed a melting point of 256 to 261 °C. `O=C(Nc1ccccc1N1CCC[C@H]1CNCCO)c1cnc2c(-c3ccc(Cl)cc3)cnn2c1` [Compound B25] returned a melting point of 134 to 136 °C. In the case of `N[C@@H]1CCN(c2ccccc2NC(=O)c2cnc3c(-c4ccc(Cl)cc4)cnn3c2)C1` [Compound B28] it was 184 to 186 °C.

The compound `NC[C@@H]1CCCN1c1ccccc1NC(=O)c1cnc2c(-c3ccc(Cl)cc3)cnn2c1` [Compound B30] had a melting point of 203 to 204 °C.

As to `CNC1CCN(c2ccccc2NC(=O)Nc2cnc3c(-c4ccc(Cl)cc4)cnn3c2)CC1` [Compound B36], the melting point was 137 to 140 °C.

In turn, `CCNC1CCN(c2ccccc2NC(=O)Nc2cnc3c(-c4ccc(Cl)cc4)cnn3c2)CC1` [Compound B38] registered a melting point of 155 to 157 °C. For the compound `O=C(NCc1ccccc1N1CCNCC1)Nc1cnc2c(-c3cccc(Cl)c3)cnn2c1` [Compound B40], the melting point lay within 196 to 197 °C. Take `CCCNC1CCN(c2ccccc2NC(=O)Nc2cnc3c(-c4ccc(Cl)cc4)cnn3c2)CC1` [Compound B41]: the melting point fell in the range of 151 to 153 °C.

In the case of `C=CCNC1CCN(c2ccccc2NC(=O)Nc2cnc3c(-c4ccc(Cl)cc4)cnn3c2)CC1` [Compound B43], the melting point lay within 152 to 153 °C. For the compound `CNC1CCN(c2ccccc2NC(=O)Nc2cnc3c(-c4cccc(Cl)c4)cnn3c2)CC1` [Compound B55], the melting point is 117 to 128 °C (dec.). Take `CCNC1CCN(c2ccccc2NC(=O)Nc2cnc3c(-c4cccc(Cl)c4)cnn3c2)CC1` [Compound B58]: the melting point is 157 to 159 °C (dec.).

`C=CCNC1CCN(c2ccccc2NC(=O)Nc2cnc3c(-c4cccc(Cl)c4)cnn3c2)CC1` [Compound B59]: the melting point was 150 to 154 °C (dec.). In the case of `O=C(Nc1cnc2c(-c3cccc(Cl)c3)cnn2c1)c1ccccc1N1CCNCC1` [Compound B165] it was 269 to 271 °C. `O=C(Nc1ccccc1N1CC[C@@H](NCCO)C1)c1ccn2ncc(-c3cccc(Cl)c3)c2n1` [Compound B170]: the melting point is 125 to 127 °C.

For `O=C(Nc1ccccc1N1CC[C@H](NCCO)C1)c1ccn2ncc(-c3cccc(Cl)c3)c2n1` [Compound B171], the melting point lay within 124 to 125 °C. In the case of `NCCN[C@@H]1CCN(c2ccccc2NC(=O)c2ccn3ncc(-c4cccc(Cl)c4)c3n2)C1.O=C(O)/C=C/C(=O)O` [Compound B172] it was 151 to 152 °C. The compound `NCCN[C@H]1CCN(c2ccccc2NC(=O)c2ccn3ncc(-c4cccc(Cl)c4)c3n2)C1` [Compound B173] had a melting point of 160 to 162 °C. In turn, `NC[C@H]1CCCN1c1ccccc1NC(=O)c1ccn2ncc(-c3cccc(Cl)c3)c2n1` [Compound B196] registered a melting point of 168 to 170 °C. As for `O=C(Nc1ccccc1N1CCC[C@@H]1CNCCO)c1ccn2ncc(-c3cccc(Cl)c3)c2n1` [Compound B198], the melting point is 118 to 121 °C. As to `CCCNC1CCN(c2ccccc2NC(=O)Nc2cnc3c(-c4cccc(Cl)c4)cnn3c2)CC1` [Compound B199], the melting point is 152 to 155 °C. For the compound `CC(C)NC1CCN(c2ccccc2NC(=O)Nc2cnc3c(-c4ccc(Cl)cc4)cnn3c2)CC1` [Compound B203], the melting point was greater than 300 °C. Regarding `CNC[C@H]1CCCN1c1ccccc1NC(=O)c1ccn2ncc(-c3cccc(Cl)c3)c2n1` [Compound B215], the melting point fell in the range of 97 to 98 °C.

For `O=C(Nc1cnc2c(-c3ccc(Cl)cc3)cnn2c1)Nc1ccccc1N1CCNCC1` [Compound B218], the melting point was in the range of 183 to 184 °C. In the case of `CCC(C)NC1CCN(c2ccccc2NC(=O)c2cnc3c(-c4ccc(Cl)cc4)cnn3c2)CC1` (stereo not shown) [Compound B243] it was 229 to 231 °C; in that of `O=C(Nc1ccccc1N1CC[C@@H](NCCO)C1)c1cnc2c(-c3ccc(Cl)cc3)cnn2c1` [Compound B245], 164 to 165 °C; in that of `O=C(Nc1cnc2c(-c3cccc(Cl)c3)cnn2c1)Nc1ccccc1N1CCNCC1` [Compound B249], 120 to 140 °C. For the compound `O=C(NCc1ccccc1N1CCNCC1)Nc1cnc2c(-c3ccc(Cl)cc3)cnn2c1` [Compound B263], the melting point is 185 to 187 °C. `O=C(Nc1cnc2c(-c3ccc(Cl)cc3)cnn2c1)c1ccccc1N1CCNCC1` [Compound B277] registered a melting point of 236 to 238 °C. For the compound `O=C(Nc1ccc(N2CCNCC2)cc1)c1cnc2c(-c3ccc(Cl)cc3)cnn2c1` [Compound B280], the melting point is 267 to 269 °C (dec.). Regarding `Clc1cccc(-c2cnn3ccc(/C4=N/c5ccccc5N5CCCCC5CN4)nc23)c1` (stereo not shown) [Compound B292], the melting point fell in the range of 190 to 191 °C. Turning to `CCCCNC1CCN(c2ccccc2NC(=O)Nc2cnc3c(-c4ccc(Cl)cc4)cnn3c2)CC1` [Compound B293], the melting point fell in the range of 138 to 143 °C.

Compound `NCCC1CCCCN1c1ccccc1NC(=O)c1ccn2ncc(-c3cccc(Cl)c3)c2n1.O=C(O)/C=C/C(=O)O` (stereo not shown) [Compound B313] showed a melting point of 211 to 212 °C. With `COc1ccc(NC(=O)c2ccn3ncc(-c4cccc(Cl)c4)c3n2)cc1N1CCNCC1` [Compound B314], the melting point is 100 to 102 °C (dec.). For the compound `NCC1CCCCN1c1ccccc1NC(=O)c1ccn2ncc(-c3cccc(Cl)c3)c2n1` (stereo not shown) [Compound B316], the melting point lay in the range of 159 to 160 °C.

On to `COc1ccc(NC(=O)c2ccn3ncc(-c4ccc(Cl)cc4)c3n2)cc1N1CCNCC1` [Compound B317], for which the melting point lay in the range of 210 to 212 °C.

On to `NC[C@H]1CCCN1c1ccccc1NC(=O)c1ccn2ncc(-c3ccc(Cl)cc3)c2n1` [Compound B318], for which the melting point was 186 to 188 °C. Compound `CCCNC1CCN(c2ccccc2NC(=O)C2=CNc3c(-c4ccc(Cl)cc4)cnn3C2)CC1` [Compound B319] came in with a melting point of 216 to 217 °C. In turn, `CCC(C)NC1CCN(c2ccccc2NC(=O)Nc2cnc3c(-c4ccc(Cl)cc4)cnn3c2)CC1` (stereo not shown) [Compound B336] displayed a melting point greater than 300 °C. The compound `O=C(NCc1ccccc1N1CCOCC1)c1ccn2nc(-c3ccccc3)cc2n1` [Example 12, N-(2-morpholinophenyl)methyl 2-phenyl-pyrazolo-[1,5-a]-pyrimidine-5-amide] had a melting point of 190 to 192 °C.

Broadly, the melting point is the temperature of the solid-liquid transition.
